Data published in patent publication US20130267551A1, “SUBSTITUTED HYDROGENATED THIENO-PYRROLO[3,2-C]PYRIDINE, LIGANDS, A PHARMACEUTICAL COMPOSITION AND A METHOD FOR USING THE ABOVE” (ALLA CHEM, LLC, priority 2010, published 2013).
Where a name gives a salt, the structure may show the parent alone. Read-outs that look alike come from different tables or passages of the source.

What was measured:
[1] = target: Serotoninergic 5-HT6 (Homo sapiens, UniProt P50406); assay: competitive radioligand binding, Serotoninergic 5-HT6; conditions: compound concentration of 1 μM; read-out: radio-labelled ligand displacement, Serotoninergic 5-HT6
Chain of Serotoninergic 5-HT6 (P50406 whole entry): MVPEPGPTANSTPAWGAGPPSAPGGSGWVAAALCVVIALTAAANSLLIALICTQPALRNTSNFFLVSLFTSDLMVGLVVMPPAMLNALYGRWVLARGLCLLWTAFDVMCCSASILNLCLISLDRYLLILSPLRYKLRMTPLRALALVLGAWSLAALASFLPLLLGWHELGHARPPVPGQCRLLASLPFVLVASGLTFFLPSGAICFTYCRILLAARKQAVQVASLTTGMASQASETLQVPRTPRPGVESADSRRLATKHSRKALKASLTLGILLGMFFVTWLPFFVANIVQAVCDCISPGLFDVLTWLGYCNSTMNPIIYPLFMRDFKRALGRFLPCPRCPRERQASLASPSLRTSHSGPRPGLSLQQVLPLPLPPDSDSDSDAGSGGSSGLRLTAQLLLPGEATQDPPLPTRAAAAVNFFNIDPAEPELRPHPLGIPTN
Procedure: (§1) Profiles of pharmacological activity of thieno-pyrrolo[3,2-c]pyridines of the general formula 1. Biological activity test of compounds of the general formula 1 was carried out in the setting of competitive radioligand binding [I. Okun, S. Tkachenko, A. Khvat, et al., Current Alzheimer Research, 7(2), 97-112 (2010)], using a wide range of therapeutic targets including G-protein coupled receptors (GPCR), ion channels and neuromediator transporters. The tested activity was determined by quantitative measurement of radio-labelled ligand displacement by tested compounds of the general formula 1 at their concentration of 1 μM.

[2] = system: Adrenergic α1A; assay: competitive radioligand binding, Adrenergic α1A; conditions: compound concentration of 1 μM
Procedure: as §1

[3] = target: T1, Adrenergic α1D (Homo sapiens, UniProt P25100); assay: competitive radioligand binding, Adrenergic α1D; conditions: compound concentration of 1 μM; read-out: radio-labelled ligand displacement, Adrenergic α1D
T1 sequence (P25100 1-572): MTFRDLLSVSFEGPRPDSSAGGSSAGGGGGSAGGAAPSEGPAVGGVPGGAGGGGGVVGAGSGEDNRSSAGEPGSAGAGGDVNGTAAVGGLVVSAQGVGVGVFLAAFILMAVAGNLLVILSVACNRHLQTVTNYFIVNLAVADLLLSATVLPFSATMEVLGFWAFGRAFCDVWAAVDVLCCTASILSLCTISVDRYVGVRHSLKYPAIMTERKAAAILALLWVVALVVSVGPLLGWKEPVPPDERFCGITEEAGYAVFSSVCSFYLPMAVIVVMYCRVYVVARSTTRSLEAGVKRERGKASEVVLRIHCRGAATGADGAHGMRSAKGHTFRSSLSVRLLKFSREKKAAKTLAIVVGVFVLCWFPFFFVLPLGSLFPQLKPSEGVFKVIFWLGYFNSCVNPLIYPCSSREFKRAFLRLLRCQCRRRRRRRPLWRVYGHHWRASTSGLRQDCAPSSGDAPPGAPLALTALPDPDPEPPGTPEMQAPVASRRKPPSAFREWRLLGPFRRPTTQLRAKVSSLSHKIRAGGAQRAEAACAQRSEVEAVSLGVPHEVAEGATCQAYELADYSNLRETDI
Procedure: as §1

[4] = target: Serotoninergic 5-HT2B (Homo sapiens, UniProt P41595); assay: competitive radioligand binding, Serotoninergic 5-HT2B; conditions: read-out: radio-labelled ligand displacement, Serotoninergic 5-HT2B
Chain of Serotoninergic 5-HT2B (P41595 whole entry): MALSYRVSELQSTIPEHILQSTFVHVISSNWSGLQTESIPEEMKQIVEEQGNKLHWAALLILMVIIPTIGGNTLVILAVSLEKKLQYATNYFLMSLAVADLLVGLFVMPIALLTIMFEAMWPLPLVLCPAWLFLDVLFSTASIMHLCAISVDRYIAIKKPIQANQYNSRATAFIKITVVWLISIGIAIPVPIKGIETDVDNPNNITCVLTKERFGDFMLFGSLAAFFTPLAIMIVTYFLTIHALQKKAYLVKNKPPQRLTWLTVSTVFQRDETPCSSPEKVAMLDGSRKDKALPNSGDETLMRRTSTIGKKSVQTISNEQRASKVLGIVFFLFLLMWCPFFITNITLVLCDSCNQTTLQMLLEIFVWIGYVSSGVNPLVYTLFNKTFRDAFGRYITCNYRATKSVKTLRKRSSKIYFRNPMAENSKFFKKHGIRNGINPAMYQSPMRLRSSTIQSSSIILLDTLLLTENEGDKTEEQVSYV
Procedure: as §1

[5] = target: Histaminergic H2 (Homo sapiens, UniProt P25021); assay: competitive radioligand binding, Histaminergic H2; conditions: compound concentration of 1 μM; read-out: radio-labelled ligand displacement, Histaminergic H2
Chain of Histaminergic H2 (P25021 whole entry): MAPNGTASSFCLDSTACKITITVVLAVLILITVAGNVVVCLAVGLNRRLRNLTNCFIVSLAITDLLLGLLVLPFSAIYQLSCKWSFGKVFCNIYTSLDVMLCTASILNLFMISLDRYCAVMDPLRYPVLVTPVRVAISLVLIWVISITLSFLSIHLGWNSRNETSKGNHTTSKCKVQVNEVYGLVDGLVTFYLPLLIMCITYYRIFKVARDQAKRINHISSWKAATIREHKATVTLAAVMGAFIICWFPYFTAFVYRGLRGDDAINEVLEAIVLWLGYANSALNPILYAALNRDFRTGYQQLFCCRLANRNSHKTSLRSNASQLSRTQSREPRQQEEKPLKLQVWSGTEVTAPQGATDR
Procedure: as §1

[6] = system: Adrenergic α1B; assay: competitive radioligand binding, Adrenergic α1B; conditions: compound concentration of 1 μM
Procedure: as §1

[7] = target: Dopaminergic D2L (Homo sapiens, UniProt P14416); assay: competitive radioligand binding, Dopaminergic D2L; conditions: compound concentration of 1 μM; read-out: radio-labelled ligand displacement, Dopaminergic D2L
Chain of Dopaminergic D2L (P14416 whole entry): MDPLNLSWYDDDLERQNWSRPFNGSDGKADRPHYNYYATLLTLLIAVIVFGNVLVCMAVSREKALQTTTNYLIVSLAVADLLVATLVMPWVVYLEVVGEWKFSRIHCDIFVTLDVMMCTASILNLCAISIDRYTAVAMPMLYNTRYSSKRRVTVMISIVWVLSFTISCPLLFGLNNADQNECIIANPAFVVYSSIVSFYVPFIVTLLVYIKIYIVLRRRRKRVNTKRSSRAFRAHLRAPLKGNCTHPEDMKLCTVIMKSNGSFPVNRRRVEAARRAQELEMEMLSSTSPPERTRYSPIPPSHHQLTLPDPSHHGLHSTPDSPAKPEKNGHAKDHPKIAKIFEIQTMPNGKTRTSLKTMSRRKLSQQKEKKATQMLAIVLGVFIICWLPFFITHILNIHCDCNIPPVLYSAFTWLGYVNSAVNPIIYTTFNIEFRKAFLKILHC
Procedure: as §1

[8] = target: Histaminergic H3 (Homo sapiens, UniProt Q9Y5N1); assay: competitive radioligand binding, Histaminergic H3; conditions: compound concentration of 1 μM; read-out: radio-labelled ligand displacement, Histaminergic H3
Chain of Histaminergic H3 (Q9Y5N1 whole entry): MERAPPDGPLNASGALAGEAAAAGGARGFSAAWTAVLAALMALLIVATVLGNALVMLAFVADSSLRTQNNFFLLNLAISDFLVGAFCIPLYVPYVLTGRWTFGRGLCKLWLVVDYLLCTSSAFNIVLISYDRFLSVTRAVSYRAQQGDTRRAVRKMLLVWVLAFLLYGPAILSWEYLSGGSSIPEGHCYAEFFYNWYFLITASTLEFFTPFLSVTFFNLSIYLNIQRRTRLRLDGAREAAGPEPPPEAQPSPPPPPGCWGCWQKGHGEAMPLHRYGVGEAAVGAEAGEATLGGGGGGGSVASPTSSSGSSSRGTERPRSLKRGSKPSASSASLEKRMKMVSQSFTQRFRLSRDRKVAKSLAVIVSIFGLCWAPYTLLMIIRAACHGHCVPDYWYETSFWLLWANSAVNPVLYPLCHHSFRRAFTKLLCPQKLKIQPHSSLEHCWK
Procedure: as §1

[9] = target: T2, Adrenergic α2A (Homo sapiens, UniProt P08913); assay: competitive radioligand binding, Adrenergic α2A; conditions: read-out: radio-labelled ligand displacement, Adrenergic α2A
T2 sequence (P08913 1-465): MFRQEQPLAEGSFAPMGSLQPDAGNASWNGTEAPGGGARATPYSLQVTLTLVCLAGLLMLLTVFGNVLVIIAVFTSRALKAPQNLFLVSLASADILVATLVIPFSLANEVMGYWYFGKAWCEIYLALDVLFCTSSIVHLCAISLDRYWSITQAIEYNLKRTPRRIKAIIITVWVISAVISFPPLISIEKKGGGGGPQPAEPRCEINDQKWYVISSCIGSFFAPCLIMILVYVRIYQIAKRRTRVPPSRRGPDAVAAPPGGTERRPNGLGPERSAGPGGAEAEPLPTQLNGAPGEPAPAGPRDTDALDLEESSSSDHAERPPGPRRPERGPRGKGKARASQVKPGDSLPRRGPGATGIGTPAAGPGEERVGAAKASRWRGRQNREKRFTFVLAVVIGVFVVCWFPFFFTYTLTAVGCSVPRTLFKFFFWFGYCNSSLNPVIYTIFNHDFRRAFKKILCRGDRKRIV
Procedure: as §1

[10] = target: Histaminergic H1 (Homo sapiens, UniProt P35367); assay: competitive radioligand binding, Histaminergic H1; conditions: compound concentration of 1 μM; read-out: radio-labelled ligand displacement, Histaminergic H1
Chain of Histaminergic H1 (P35367 whole entry): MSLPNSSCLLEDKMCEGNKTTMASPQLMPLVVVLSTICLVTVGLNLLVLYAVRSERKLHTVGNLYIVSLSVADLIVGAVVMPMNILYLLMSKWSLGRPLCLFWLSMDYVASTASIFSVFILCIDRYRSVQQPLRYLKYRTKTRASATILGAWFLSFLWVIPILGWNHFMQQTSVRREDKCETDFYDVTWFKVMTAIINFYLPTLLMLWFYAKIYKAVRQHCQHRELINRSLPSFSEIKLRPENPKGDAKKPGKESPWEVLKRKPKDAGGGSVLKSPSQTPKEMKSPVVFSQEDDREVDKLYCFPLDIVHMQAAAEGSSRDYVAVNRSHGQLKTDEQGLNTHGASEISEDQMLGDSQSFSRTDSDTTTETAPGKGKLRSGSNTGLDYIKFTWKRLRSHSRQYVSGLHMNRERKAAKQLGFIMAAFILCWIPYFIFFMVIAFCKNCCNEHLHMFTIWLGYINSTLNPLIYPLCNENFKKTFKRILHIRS
Procedure: as §1

[11] = target: Dopaminergic D1 (Homo sapiens, UniProt P21728); assay: competitive radioligand binding, Dopaminergic D1; conditions: compound concentration of 1 μM; read-out: radio-labelled ligand displacement, Dopaminergic D1
Chain of Dopaminergic D1 (P21728 whole entry): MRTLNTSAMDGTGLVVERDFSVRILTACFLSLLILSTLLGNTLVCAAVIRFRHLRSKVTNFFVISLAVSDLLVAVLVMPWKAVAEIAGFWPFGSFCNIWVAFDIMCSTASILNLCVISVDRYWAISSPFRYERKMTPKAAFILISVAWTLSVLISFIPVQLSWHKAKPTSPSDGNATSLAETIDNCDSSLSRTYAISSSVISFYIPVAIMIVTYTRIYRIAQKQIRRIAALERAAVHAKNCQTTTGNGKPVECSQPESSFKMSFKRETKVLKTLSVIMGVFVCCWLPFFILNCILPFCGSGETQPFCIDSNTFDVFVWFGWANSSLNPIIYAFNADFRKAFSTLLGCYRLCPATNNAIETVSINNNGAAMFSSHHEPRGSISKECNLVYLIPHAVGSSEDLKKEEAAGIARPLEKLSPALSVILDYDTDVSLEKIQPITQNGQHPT
Procedure: as §1

[12] = target: Dopaminergic D2S (Homo sapiens, UniProt P14416); assay: competitive radioligand binding, Dopaminergic D2S; conditions: compound concentration of 1 μM; read-out: radio-labelled ligand displacement, Dopaminergic D2S
Chain of Dopaminergic D2S (P14416 1-414 isoform P14416-2): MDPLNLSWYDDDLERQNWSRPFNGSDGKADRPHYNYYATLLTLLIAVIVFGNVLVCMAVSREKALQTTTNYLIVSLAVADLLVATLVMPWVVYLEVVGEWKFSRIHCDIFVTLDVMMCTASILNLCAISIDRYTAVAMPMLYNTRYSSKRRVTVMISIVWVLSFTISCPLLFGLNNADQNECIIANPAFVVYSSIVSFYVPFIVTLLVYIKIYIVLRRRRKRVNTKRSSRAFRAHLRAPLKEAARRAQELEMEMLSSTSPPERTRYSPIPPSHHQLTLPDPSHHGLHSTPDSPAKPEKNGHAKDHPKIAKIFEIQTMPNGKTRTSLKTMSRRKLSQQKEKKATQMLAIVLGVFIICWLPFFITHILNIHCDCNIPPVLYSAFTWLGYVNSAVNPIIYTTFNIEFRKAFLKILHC
Procedure: as §1

[13] = target: Serotoninergic 5-HT2A (Homo sapiens, UniProt P28223); assay: competitive radioligand binding, Serotoninergic 5-HT2A; conditions: read-out: radio-labelled ligand displacement, Serotoninergic 5-HT2A
Chain of Serotoninergic 5-HT2A (P28223 whole entry): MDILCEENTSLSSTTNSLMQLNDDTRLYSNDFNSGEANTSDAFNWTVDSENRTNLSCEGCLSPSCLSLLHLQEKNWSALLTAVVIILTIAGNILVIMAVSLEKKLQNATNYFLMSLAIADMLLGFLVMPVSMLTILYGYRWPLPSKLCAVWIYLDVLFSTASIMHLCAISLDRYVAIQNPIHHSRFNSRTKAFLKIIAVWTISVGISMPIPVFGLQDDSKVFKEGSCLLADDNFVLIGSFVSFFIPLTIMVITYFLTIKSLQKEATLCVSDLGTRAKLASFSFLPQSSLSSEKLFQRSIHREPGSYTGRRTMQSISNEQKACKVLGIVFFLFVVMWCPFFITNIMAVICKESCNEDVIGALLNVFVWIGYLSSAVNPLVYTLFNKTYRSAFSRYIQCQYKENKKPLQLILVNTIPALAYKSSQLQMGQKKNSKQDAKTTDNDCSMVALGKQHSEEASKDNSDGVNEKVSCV
Procedure: as §1

[14] = target: T3, Serotoninergic 5-HT1A (Homo sapiens, UniProt P08908); assay: competitive radioligand binding, Serotoninergic 5-HT1A; conditions: compound concentration of 1 μM; read-out: radio-labelled ligand displacement, Serotoninergic 5-HT1A
T3 sequence (P08908 1-422): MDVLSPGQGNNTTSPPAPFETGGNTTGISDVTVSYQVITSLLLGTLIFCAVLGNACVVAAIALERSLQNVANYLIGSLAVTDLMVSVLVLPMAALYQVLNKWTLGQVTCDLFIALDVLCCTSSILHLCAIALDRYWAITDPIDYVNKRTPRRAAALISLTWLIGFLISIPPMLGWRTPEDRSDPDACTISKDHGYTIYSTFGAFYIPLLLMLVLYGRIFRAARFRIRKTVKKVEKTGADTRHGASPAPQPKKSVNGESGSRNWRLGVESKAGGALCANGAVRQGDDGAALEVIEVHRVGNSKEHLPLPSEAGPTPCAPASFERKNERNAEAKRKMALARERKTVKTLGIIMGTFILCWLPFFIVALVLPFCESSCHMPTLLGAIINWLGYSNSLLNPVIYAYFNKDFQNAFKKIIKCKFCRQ
Procedure: as §1

[15] = target: Dopaminergic D3 (Homo sapiens, UniProt P35462); assay: competitive radioligand binding, Dopaminergic D3; conditions: compound concentration of 1 μM; read-out: radio-labelled ligand displacement, Dopaminergic D3
Chain of Dopaminergic D3 (P35462 whole entry): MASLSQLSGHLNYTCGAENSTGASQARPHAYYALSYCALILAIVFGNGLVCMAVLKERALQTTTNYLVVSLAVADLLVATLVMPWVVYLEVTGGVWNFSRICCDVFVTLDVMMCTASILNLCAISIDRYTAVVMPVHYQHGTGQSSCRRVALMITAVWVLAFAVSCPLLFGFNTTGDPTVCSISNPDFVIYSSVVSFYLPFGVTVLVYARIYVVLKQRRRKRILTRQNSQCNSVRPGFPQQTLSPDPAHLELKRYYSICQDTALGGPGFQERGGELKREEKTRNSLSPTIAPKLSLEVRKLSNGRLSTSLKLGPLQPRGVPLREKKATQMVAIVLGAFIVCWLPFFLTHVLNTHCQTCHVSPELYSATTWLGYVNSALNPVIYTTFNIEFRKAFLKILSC
Procedure: as §1

## Cc1cc2c(s1)c1c(n2Cc2ccccc2)CCN(C)C1.Cl [2.5(1)•HCl, 4-Benzyl-2,7-dimethyl-5,6,7,8-tetrahydro-4H-thieno[2′,3′:4,5]pyrrolo[3,2-c]pyridine hydrochloride]
[1]
  inhibition at 1 µM: 55%
[2]
  radio-labelled ligand displacement, Adrenergic α1A: 42%
[3]
  inhibition at 1 µM: 21%
[4]
  inhibition at 1 µM: 91%
[5]
  inhibition at 1 µM: 44%
[6]
  radio-labelled ligand displacement, Adrenergic α1B: 10%
[7]
  inhibition at 1 µM: 8%
[8]
  inhibition at 1 µM: -4%
[9]
  inhibition at 1 µM: 34%
[10]
  inhibition at 1 µM: 96%
[11]
  inhibition at 1 µM: 5%
[12]
  inhibition at 1 µM: -6%
[13]
  inhibition at 1 µM: 93%
[14]
  inhibition at 1 µM: 3%
[15]
  inhibition at 1 µM: 16%

## Cc1cc2c3c(n(Cc4ccccc4)c2s1)CC1CCC3N1C (stereo not drawn) [3.13(1)•HCl, 9-benzyl-2,10-dimethyl-4,5,6,7,8,9-hexahydro-4,7-epiminocyclohepta[b]thieno[3,2-d]pyrrole]
[1]
  inhibition at 1 µM: 67%
[2]
  radio-labelled ligand displacement, Adrenergic α1A: 61%
[3]
  inhibition at 1 µM: 43%
[4]
  inhibition at 1 µM: 90%
[5]
  inhibition at 1 µM: 70%
[6]
  radio-labelled ligand displacement, Adrenergic α1B: 69%
[7]
  inhibition at 1 µM: 37%
[8]
  inhibition at 1 µM: 12%
[9]
  inhibition at 1 µM: 65%
[10]
  inhibition at 1 µM: 88%
[11]
  inhibition at 1 µM: 40%
[12]
  inhibition at 1 µM: 25%
[13]
  inhibition at 1 µM: 95%
[14]
  inhibition at 1 µM: 19%
[15]
  inhibition at 1 µM: 21%

## Cc1cc2c3c(n(Cc4ccccc4)c2s1)CCN(C)C3.Cl [3.5(1)•HCl, 8-Benzyl-2,5-dimethyl-5,6,7,8-tetrahydro-4H-thieno[3′,2′:4,5]pyrrolo[3,2-c]pyridine hydrochloride]
[1]
  inhibition at 1 µM: 85%
[2]
  radio-labelled ligand displacement, Adrenergic α1A: 77%
[3]
  inhibition at 1 µM: 44%
[4]
  inhibition at 1 µM: 90%
[5]
  inhibition at 1 µM: 91%
[6]
  radio-labelled ligand displacement, Adrenergic α1B: 57%
[7]
  inhibition at 1 µM: 14%
[8]
  inhibition at 1 µM: 18%
[9]
  inhibition at 1 µM: 64%
[10]
  inhibition at 1 µM: 96%
[11]
  inhibition at 1 µM: 5%
[12]
  inhibition at 1 µM: 23%
[13]
  inhibition at 1 µM: 100%
[14]
  inhibition at 1 µM: 42%
[15]
  inhibition at 1 µM: 19%

## Cc1cc2c(s1)c1c(n2CCc2ccccc2)CCN(C)C1.Cl [2.6(1)•HCl, 2,7-Dimethyl-4-(2-phenylethyl)-5,6,7,8-tetrahydro-4H-thieno[2′,3′:4,5]pyrrolo[3,2-c]pyridine hydrochloride]
[1]
  inhibition at 1 µM: 98%
[2]
  radio-labelled ligand displacement, Adrenergic α1A: 83%
[3]
  inhibition at 1 µM: 64%
[4]
  inhibition at 1 µM: 79%
[5]
  inhibition at 1 µM: 56%
[6]
  radio-labelled ligand displacement, Adrenergic α1B: 90%
[7]
  inhibition at 1 µM: 76%
[8]
  inhibition at 1 µM: -15%
[9]
  inhibition at 1 µM: 80%
[10]
  inhibition at 1 µM: 97%
[11]
  inhibition at 1 µM: 15%
[12]
  inhibition at 1 µM: 73%
[13]
  inhibition at 1 µM: 99%
[14]
  inhibition at 1 µM: 16%
[15]
  inhibition at 1 µM: 62%

## Cc1cc2c(s1)c1c(n2-c2cccc(F)c2)CCN(C)C1 [2.4(3)•HCl, 2,7-dimethyl-4-(3-fluorophenyl)-5,6,7,8-tetrahydro-4H-thieno[2′,3′:4,5]pyrrolo[3,2-c]pyridine]
[1]
  inhibition at 1 µM: 26%
[2]
  radio-labelled ligand displacement, Adrenergic α1A: 17%
[3]
  inhibition at 1 µM: 28%
[4]; compound concentration of 1 μM
  inhibition at 1 µM: 39%
[5]
  inhibition at 1 µM: 29%
[6]
  radio-labelled ligand displacement, Adrenergic α1B: 10%
[7]
  inhibition at 1 µM: 4%
[8]
  inhibition at 1 µM: 1%
[9]; compound concentration of 1 μM
  inhibition at 1 µM: 14%
[10]
  inhibition at 1 µM: 38%
[11]
  inhibition at 1 µM: 5%
[12]
  inhibition at 1 µM: 3%
[13]
  inhibition at 1 µM: 41%
[14]
  inhibition at 1 µM: 3%
[15]
  inhibition at 1 µM: 11%

## Cc1cc2c3c(n(CCc4ccccc4)c2s1)CCN(C)C3.Cl [3.6(1)•HCl, 2,5-Dimethyl-8-(2-phenylethyl)-5,6,7,8-tetrahydro-4H-thieno[3′,2′:4,5]pyrrolo[3,2-c]pyridine hydrochloride]
[1]
  inhibition at 1 µM: 103%
[2]
  radio-labelled ligand displacement, Adrenergic α1A: 97%
[3]
  inhibition at 1 µM: 92%
[4]
  inhibition at 1 µM: 92%
[5]
  inhibition at 1 µM: 96%
[6]
  radio-labelled ligand displacement, Adrenergic α1B: 99%
[7]
  inhibition at 1 µM: 87%
[8]
  inhibition at 1 µM: -17%
[9]
  inhibition at 1 µM: 100%
[10]
  inhibition at 1 µM: 98%
[11]
  inhibition at 1 µM: 70%
[12]
  inhibition at 1 µM: 86%
[13]
  inhibition at 1 µM: 101%
[14]
  inhibition at 1 µM: 48%
[15]
  inhibition at 1 µM: 73%

## CC1Cc2c(c3sc(Cl)cc3n2C#Cc2cccc(F)c2)C(C)N1C (stereo not drawn) [2.10(3)•HCl, 6,7,8-trimethyl-4-(3-fluorophenyl)ethynyl-2-chloro-5,6,7,8-tetrahydro-4H-thieno[2′,3′:4,5]pyrrolo[3,2-c]pyridine]
[1]
  inhibition at 1 µM: 35%
[2]
  radio-labelled ligand displacement, Adrenergic α1A: 21%
[3]
  inhibition at 1 µM: 11%
[4]; compound concentration of 1 μM
  inhibition at 1 µM: 39%
[5]
  inhibition at 1 µM: 33%
[6]
  radio-labelled ligand displacement, Adrenergic α1B: 5%
[7]
  inhibition at 1 µM: 20%
[8]
  inhibition at 1 µM: -10%
[9]; compound concentration of 1 μM
  inhibition at 1 µM: 17%
[10]
  inhibition at 1 µM: 65%
[11]
  inhibition at 1 µM: 4%
[12]
  inhibition at 1 µM: 31%
[13]
  inhibition at 1 µM: 43%
[14]
  inhibition at 1 µM: 6%
[15]
  inhibition at 1 µM: 23%
